In ChEMBL document CHEMBL4422621, “Novel chalcone and flavone derivatives as selective and dual inhibitors of the transport proteins ABCB1 and ABCG2” (Eur J Med Chem, 2019):

Legend:
[1] = molecular target: Multidrug resistance-associated protein 1 (Homo sapiens, UniProt P33527); assay: Inhibition of ABCC1 in human […] cells at 5 to 10 uM preincubated for 30 mins followed by calcein AM addition and measured every 60 secs for 1 hr by fluorescence assay; format: cell-based
[2] = molecular target: ATP-dependent translocase ABCB1 (Homo sapiens, UniProt P08183); assay: Inhibition of ABCB1 in human A2780/ADR cells at 5 to 10 uM preincubated for 30 mins followed by calcein AM addition and measured every 60 secs for 1 hr by fluorescence assay; format: cell-based
[3] = molecular target: T1, ABCG2 (BCRP) (Homo sapiens, UniProt Q9UNQ0); assay: (§1) Inhibition of ABCG2 (unknown origin) expressed in MDCK II BCRP cells assessed as effect on heophorbide A accumulation at 5 to 10 uM after 120 mins by flow cytometric analysis relative to control; format: cell-based; conditions: MDCK II BCRP cells expressing ABCG2, probe pheophorbide A
T1 sequence (Q9UNQ0 whole entry): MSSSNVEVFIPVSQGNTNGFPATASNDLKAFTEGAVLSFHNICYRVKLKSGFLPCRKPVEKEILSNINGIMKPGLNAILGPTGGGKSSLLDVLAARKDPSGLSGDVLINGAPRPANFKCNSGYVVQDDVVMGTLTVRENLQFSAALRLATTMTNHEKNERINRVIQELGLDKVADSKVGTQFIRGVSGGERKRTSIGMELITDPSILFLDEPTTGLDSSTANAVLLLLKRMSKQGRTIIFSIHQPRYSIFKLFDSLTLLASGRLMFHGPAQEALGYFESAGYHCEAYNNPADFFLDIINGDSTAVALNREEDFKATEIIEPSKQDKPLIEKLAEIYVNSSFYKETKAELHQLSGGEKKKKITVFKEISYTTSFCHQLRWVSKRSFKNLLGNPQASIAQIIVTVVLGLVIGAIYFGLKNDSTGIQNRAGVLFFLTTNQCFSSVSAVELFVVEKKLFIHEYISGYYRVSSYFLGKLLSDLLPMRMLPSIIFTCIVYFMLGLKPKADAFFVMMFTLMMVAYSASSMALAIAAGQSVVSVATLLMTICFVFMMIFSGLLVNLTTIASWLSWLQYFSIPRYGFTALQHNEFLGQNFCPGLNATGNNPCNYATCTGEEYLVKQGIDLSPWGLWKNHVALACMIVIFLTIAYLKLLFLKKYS

[4] = molecular target: T2, Broad substrate specificity ATP-binding cassette transporter ABCG2 (Homo sapiens, UniProt Q9UNQ0); assay: Inhibition of ABCG2 (unknown origin) expressed in MDCK II BCRP cells assessed as effect on pheophorbide A accumulation after 120 mins by flow cytometric analysis; format: cell-based
T2 sequence (Q9UNQ0 whole entry): T1 sequence (Q9UNQ0 whole entry)

[5] = molecular target: T2, Broad substrate specificity ATP-binding cassette transporter ABCG2; assay: as §1; format: cell-based; conditions: 2 h
[6] = Growth inhibition of MDCK2 cells expressing BCRP (unknown origin) after 72 hrs by MTT assay; format: ADME, cell-based, Canis lupus familiaris, MDCK-II; conditions: dog
[7] = system: ABCG2 (BCRP); assay: Therapeutic index, ratio of GI50 for MDCK2 cells expressing BCRP (unknown origin) to EC50 for ABCG2 (unknown origin) co-expressed in MDCK2 cells expressing BCRP (unknown origin); format: toxicity, cell-based; conditions: dog
[8] = Growth inhibition of MDCK2 cells after 72 hrs by MTT assay; format: cell-based, Canis lupus familiaris, MDCK-II; conditions: dog

Chain of Multidrug resistance-associated protein 1 (P33527 whole entry): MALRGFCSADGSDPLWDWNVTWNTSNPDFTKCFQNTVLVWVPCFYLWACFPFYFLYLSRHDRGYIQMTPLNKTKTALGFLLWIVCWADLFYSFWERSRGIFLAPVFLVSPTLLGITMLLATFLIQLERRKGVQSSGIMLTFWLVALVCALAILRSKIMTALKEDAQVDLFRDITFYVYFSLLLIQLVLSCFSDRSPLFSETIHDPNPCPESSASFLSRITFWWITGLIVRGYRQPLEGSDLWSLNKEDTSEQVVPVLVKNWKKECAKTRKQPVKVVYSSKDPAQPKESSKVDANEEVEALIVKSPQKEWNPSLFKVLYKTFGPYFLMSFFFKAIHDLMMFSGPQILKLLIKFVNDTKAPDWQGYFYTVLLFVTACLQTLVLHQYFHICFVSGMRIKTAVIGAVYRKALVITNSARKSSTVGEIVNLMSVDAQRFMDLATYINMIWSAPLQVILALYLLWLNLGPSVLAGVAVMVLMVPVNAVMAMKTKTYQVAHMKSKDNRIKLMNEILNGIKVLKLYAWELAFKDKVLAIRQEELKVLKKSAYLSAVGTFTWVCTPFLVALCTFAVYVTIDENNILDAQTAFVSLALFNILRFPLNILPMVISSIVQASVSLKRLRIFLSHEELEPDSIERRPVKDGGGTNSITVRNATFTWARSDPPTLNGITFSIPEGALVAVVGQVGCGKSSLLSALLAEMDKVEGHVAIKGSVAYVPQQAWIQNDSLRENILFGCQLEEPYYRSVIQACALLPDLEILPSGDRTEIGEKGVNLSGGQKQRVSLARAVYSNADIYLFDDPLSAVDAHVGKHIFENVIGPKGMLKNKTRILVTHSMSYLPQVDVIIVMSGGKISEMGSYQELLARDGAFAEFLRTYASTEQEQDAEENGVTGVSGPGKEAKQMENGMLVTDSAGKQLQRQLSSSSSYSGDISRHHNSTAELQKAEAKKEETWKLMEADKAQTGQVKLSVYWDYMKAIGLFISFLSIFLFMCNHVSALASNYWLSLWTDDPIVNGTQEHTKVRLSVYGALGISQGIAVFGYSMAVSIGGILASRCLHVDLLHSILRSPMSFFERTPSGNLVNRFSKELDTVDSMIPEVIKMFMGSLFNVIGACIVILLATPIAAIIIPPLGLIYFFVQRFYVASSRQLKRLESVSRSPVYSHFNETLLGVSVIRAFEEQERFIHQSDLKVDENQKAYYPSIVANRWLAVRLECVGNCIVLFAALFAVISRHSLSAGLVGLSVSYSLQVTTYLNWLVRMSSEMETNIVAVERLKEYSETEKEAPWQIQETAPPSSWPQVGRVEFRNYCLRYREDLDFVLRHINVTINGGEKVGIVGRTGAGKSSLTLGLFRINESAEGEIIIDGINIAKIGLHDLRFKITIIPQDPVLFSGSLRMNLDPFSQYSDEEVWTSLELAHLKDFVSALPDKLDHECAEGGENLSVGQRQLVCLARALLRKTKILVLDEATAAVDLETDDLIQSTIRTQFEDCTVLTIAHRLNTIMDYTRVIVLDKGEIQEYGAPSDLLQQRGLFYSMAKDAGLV
Chain of ATP-dependent translocase ABCB1 (P08183 whole entry): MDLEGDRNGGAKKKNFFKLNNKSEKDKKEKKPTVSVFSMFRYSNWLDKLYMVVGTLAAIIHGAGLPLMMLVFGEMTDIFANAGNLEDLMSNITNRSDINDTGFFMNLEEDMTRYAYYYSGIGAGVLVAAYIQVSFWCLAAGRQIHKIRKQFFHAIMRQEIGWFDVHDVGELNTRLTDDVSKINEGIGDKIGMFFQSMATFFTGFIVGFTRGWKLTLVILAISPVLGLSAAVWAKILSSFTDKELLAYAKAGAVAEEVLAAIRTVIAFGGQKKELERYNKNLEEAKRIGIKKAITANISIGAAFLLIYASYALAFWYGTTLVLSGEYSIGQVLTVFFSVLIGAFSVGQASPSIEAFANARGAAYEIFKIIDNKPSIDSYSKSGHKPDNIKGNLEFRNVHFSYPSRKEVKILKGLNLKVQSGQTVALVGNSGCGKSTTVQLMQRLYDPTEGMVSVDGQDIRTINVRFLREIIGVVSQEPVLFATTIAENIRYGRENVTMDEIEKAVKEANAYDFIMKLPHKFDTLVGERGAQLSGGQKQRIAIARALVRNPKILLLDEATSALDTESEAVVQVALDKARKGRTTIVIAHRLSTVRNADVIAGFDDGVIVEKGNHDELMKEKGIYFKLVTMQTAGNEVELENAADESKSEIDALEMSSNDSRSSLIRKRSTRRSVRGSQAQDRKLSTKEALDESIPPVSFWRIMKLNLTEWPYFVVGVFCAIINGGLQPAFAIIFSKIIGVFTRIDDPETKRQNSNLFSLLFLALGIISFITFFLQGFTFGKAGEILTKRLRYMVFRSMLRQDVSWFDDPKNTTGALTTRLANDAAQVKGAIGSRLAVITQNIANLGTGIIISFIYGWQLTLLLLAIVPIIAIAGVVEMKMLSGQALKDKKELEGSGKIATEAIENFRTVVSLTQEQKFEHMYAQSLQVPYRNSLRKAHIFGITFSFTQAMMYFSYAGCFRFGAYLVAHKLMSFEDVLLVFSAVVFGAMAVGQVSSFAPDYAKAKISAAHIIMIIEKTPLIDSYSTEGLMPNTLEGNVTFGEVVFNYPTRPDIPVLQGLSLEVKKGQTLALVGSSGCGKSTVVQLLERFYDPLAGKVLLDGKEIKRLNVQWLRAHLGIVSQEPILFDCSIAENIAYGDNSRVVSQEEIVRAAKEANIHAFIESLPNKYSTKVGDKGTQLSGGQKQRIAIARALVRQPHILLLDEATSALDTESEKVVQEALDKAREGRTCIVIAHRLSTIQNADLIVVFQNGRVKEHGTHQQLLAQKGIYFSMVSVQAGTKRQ

Compound | inhibition at 2 h [3] | IC50 [4] | inhibition (INH) [5] | further results
O=C(/C=C/c1cccs1)c1ccccc1O | ≥ 25% | 10.5 µM |  | inhibition (INH) [1]: Not Active; inhibition (INH) [2]: Not Active
O=C(/C=C/c1ccco1)c1ccc(O)cc1 |  |  | Not Active | inhibition (INH) [1]: Not Active; inhibition (INH) [2]: Not Active
COc1cc(C(=O)/C=C/c2cc(OC)c(OC)c(OC)c2)ccc1O | ≥ 25% | 1.97 µM |  | GI50 at 72 h [6]: 9.38 µM; inhibition (INH) [1]: Not Active; inhibition (INH) [2]: Not Active; selectivity ratio [7]: 4.8; GI50 at 72 h [8]: 7.56 µM
O=C(/C=C/c1ccccc1C(F)(F)F)c1ccc(O)cc1 | ≥ 25% | 4.91 µM |  | inhibition (INH) [1]: Not Active; inhibition (INH) [2]: Not Active
COc1cc(C(=O)/C=C/c2cc(OC)c(OC)c(OC)c2)ccc1OCC(=O)Nc1ccc2c(c1)COC2=O | ≥ 25% | 11.4 µM |  | 
COc1cc(-c2oc3ccccc3c(=O)c2OCC(=O)Nc2ccc3c(c2)COC3=O)cc(OC)c1OC | ≥ 25% | 9 µM |  | 
O=C(COc1ccc(C(=O)/C=C/c2ccc([N+](=O)[O-])cc2)cc1)Nc1ccc2c(c1)COC2=O |  |  | Not Active | 
O=C(COc1ccc(C(=O)/C=C/c2cccs2)cc1)Nc1ccc2c(c1)COC2=O |  |  | Not Active | 
CCCOc1ccc(/C=C/C(=O)c2ccc(OCC(=O)Nc3ccc4c(c3)COC4=O)cc2)cc1 |  |  | Not Active | 
COc1ccc(/C=C/C(=O)c2ccc(OCC(=O)Nc3ccc4c(c3)COC4=O)cc2)cc1OC | ≥ 25% | 6.63 µM |  | 
O=C(COc1ccc(C(=O)/C=C/c2ccccc2Cl)cc1)Nc1ccc2c(c1)COC2=O |  |  | Not Active | 
O=C(COc1ccc(C(=O)/C=C/c2c(F)cccc2F)cc1)Nc1ccc2c(c1)COC2=O | ≥ 25% | 10.9 µM |  | 
COc1ccc(NC(=O)COc2ccc(C(=O)/C=C/c3ccco3)cc2)cc1OC | ≥ 25% | 5.4 µM |  | 
O=C(COc1cccc(C(=O)/C=C/c2ccccc2)c1)Nc1ccc2c(c1)COC2=O | ≥ 25% | 6.08 µM |  | GI50 at 72 h [6]: 16.6 µM; selectivity ratio [7]: 2.7; GI50 at 72 h [8]: 11.5 µM
O=C(COc1ccc(C(=O)/C=C/c2ccc(OCc3ccc(Cl)cc3)cc2)cc1)Nc1ccc2c(c1)COC2=O |  |  | Not Active | 
O=C(COc1ccc(C(=O)/C=C/c2ccc(OCc3ccc(Cl)cc3Cl)cc2)cc1)Nc1ccc2c(c1)COC2=O |  |  | Not Active | 
COc1ccc(NC(=O)COc2ccc(C(=O)/C=C/c3ccc(Cl)cc3)cc2)cc1OC | ≥ 25% | 6.95 µM |  | 
COc1cc(/C=C/C(=O)c2ccc(OCC(=O)Nc3ccc4c(c3)COC4=O)cc2)cc(OC)c1OC | ≥ 25% | 8.44 µM |  | 
COc1cc(/C=C/C(=O)c2ccc(OCC(=O)NCc3ccc4c(c3)OCO4)cc2)cc(OC)c1OC | ≥ 25% | 6.89 µM |  | GI50 at 72 h [6]: 63.5 µM; selectivity ratio [7]: 9.2; GI50 at 72 h [8]: 61.5 µM
O=C(COc1ccc(C(=O)/C=C/c2c(F)cccc2F)cc1)NCc1ccc2c(c1)OCO2 |  |  | Not Active | 
O=C(COc1ccc(C(=O)/C=C/c2ccccc2)cc1)Nc1ccc2c(c1)COC2=O |  |  | Not Active | 
CCCCOc1ccc(/C=C/C(=O)c2ccc(OCC(=O)Nc3ccc4c(c3)COC4=O)cc2)cc1 |  |  | Not Active | 
COc1ccc(/C=C/C(=O)c2ccc(OCC(=O)Nc3ccc4c(c3)COC4=O)cc2)cc1 |  |  | Not Active | 
O=C(COc1ccc(C(=O)/C=C/c2ccc(OCc3ccccc3)cc2)cc1)Nc1ccc2c(c1)COC2=O |  |  | Not Active | 
COc1cccc(/C=C/C(=O)c2ccc(OCC(=O)Nc3ccc(OC)c(OC)c3)cc2)c1 | ≥ 25% | 3.58 µM |  | GI50 at 72 h [6]: 36.7 µM; selectivity ratio [7]: 10.3; GI50 at 72 h [8]: 33.2 µM
COc1ccc(/C=C/C(=O)c2ccc(OCC(=O)NCc3ccc4c(c3)OCO4)cc2)cc1 | ≥ 25% | 10 µM |  | 
COc1ccc(/C=C/C(=O)c2cccc(OCC(=O)Nc3ccc4c(c3)COC4=O)c2)cc1OC | ≥ 25% | 12 µM |  | 

Compound | inhibition at 2 h [3] | IC50 [4] | inhibition (INH) [5] | further results
COc1ccc(NC(=O)COc2ccc(C(=O)/C=C/c3c(F)cccc3F)cc2)cc1OC | ≥ 25% | 6.11 µM |  | GI50 at 72 h [6]: 36.6 µM; selectivity ratio [7]: 6; GI50 at 72 h [8]: 36.2 µM
CCOc1ccc(/C=C/C(=O)c2ccc(OCC(=O)Nc3ccc4c(c3)COC4=O)cc2)cc1 | ≥ 25% | 20.1 µM |  | 
O=C(COc1ccc(/C=C/C(=O)c2ccc(F)cc2)cc1)Nc1ccc2c(c1)COC2=O |  |  | Not Active | 
COc1cccc(/C=C/C(=O)c2ccc(OCC(=O)Nc3ccc4c(c3)COC4=O)cc2)c1 |  |  | Not Active | 
CCOc1ccc(/C=C/C(=O)c2ccc(OCC(=O)NCc3ccc4c(c3)OCO4)cc2)cc1 |  |  | Not Active | 
COc1ccc(/C=C/C(=O)c2cccc(OCC(=O)Nc3ccc(OC)c(OC)c3)c2)cc1OC | ≥ 25% | 6.33 µM |  | 
O=C(COc1ccc(C(=O)/C=C/c2ccco2)cc1)Nc1ccc2c(c1)COC2=O |  |  | Not Active | 
O=C(/C=C/c1ccco1)c1ccccc1O | ≥ 25% | 16.2 µM |  | inhibition (INH) [1]: Not Active; inhibition (INH) [2]: Not Active
O=C(COc1c(-c2ccccc2)oc2ccccc2c1=O)Nc1ccc2c(c1)COC2=O | ≥ 25% | 13.1 µM |  | 
O=C(/C=C/c1ccc(OCc2ccccc2)cc1)c1ccc(O)cc1 | ≥ 25% | 9.21 µM |  | inhibition (INH) [1]: Not Active; inhibition (INH) [2]: Not Active
O=C(COc1c(-c2cccs2)oc2ccccc2c1=O)Nc1ccc2c(c1)COC2=O |  |  | Not Active | 
O=C(/C=C/c1ccc(OCc2ccc(Cl)cc2)cc1)c1ccc(O)cc1 | ≥ 25% | 20 µM |  | inhibition (INH) [1]: Not Active; inhibition (INH) [2]: Not Active
CCOc1ccc(/C=C/C(=O)c2ccc(O)cc2)cc1 | ≥ 25% | 6.44 µM |  | inhibition (INH) [1]: Not Active; inhibition (INH) [2]: Not Active
O=C(/C=C/c1cccs1)c1ccc(O)cc1 | ≥ 25% | 18.2 µM |  | inhibition (INH) [1]: Not Active; inhibition (INH) [2]: Not Active
COc1ccc(-c2oc3ccccc3c(=O)c2OCC(=O)Nc2ccc3c(c2)COC3=O)cc1 |  |  | Not Active | 
COc1cc(-c2c(OCC(=O)Nc3cccc4ccccc34)oc3ccccc3c2=O)cc(OC)c1OC | ≥ 25% | 10.5 µM |  | 
Cc1ccc(-c2c(OCC(=O)Nc3ccc(Br)cc3)oc3ccccc3c2=O)cc1 |  |  | Not Active | 
COc1cc(/C=C/C(=O)c2cccc(O)c2)cc(OC)c1OC | ≥ 25% | 4.28 µM |  | inhibition (INH) [1]: Not Active; inhibition (INH) [2]: Not Active
O=C(/C=C/c1ccc(OCc2ccc(Cl)cc2Cl)cc1)c1ccc(O)cc1 |  |  | Not Active | inhibition (INH) [1]: Not Active; inhibition (INH) [2]: Not Active
COc1ccc(-c2oc3ccccc3c(=O)c2OCC(=O)Nc2ccc3c(c2)COC3=O)cc1OC |  |  | Not Active | 
COc1ccc(-c2c(OCC(=O)Nc3ccc(Br)cc3)oc3ccccc3c2=O)cc1 |  |  | Not Active | 
CCCCOc1ccc(/C=C/C(=O)c2ccc(O)cc2)cc1 | ≥ 25% | 7.29 µM |  | inhibition (INH) [1]: Not Active; inhibition (INH) [2]: Not Active
O=C(COc1c(-c2ccco2)oc2ccccc2c1=O)Nc1ccc2c(c1)COC2=O |  |  | Not Active | 
Cc1ccc(-c2oc3ccccc3c(=O)c2OCC(=O)Nc2ccc3c(c2)COC3=O)cc1 |  |  | Not Active | 
CCCOc1ccc(/C=C/C(=O)c2ccc(O)cc2)cc1 | ≥ 25% | 4.74 µM |  | GI50 at 72 h [6]: 28.5 µM; inhibition (INH) [1]: Not Active; inhibition (INH) [2]: Not Active; selectivity ratio [7]: 6; GI50 at 72 h [8]: 31.1 µM
O=C(/C=C/c1c(F)cccc1F)c1ccc(O)cc1 | ≥ 25% | 7.22 µM |  | inhibition (INH) [1]: Not Active; inhibition (INH) [2]: Not Active
